Test results reported in US6376584B1, “Hydroxy-substituted N-alkoxy hindered amines and compositions stabilized therewith” (Ciba Specialty Chemicals Corporation, priority 1999, dated 2002).
Where two headings read alike, the source gives them in different places.

Assay: pKa values by non-aqueous titration (half neutralization potential)
Assay type: physicochemical
Conditions: for HPN: 1:1 acetonitrile:chloroform, 0.1N perchloric acid/dioxane titrant
Description: In order to determine the pKa values of water insoluble materials, organic references with known pKa values in water are titrated non-aqueously. A plot of the half neutralization potential (HNP) versus the known aqueous pKa value of the reference material is established. The HNP of the test material is determined and extrapolated to find the corresponding pKa value of the test material. Such organic reference materials include 2,2,6,6-tetrarnethylpiperidine; 4-hydroxy-2,2,6,6-tetramethylpiperidine; 1-hydroxyethyl-4-hydroxy-2,2,6,6-tetramethylpiperidine; triacetoneamine and N-methylaniline.
The reference materials, which are structurally at least peripherally related to the instant test materials and are soluble in both water and 1:1 acetonitrile:chloroform, are used to make a calibration plot in the non-aqueous titration (1:1 acetonitrile:chloroform solvent and 0.1N perchloric acid/dioxane titrant) system. Approximately 0.5 milliequivalents of test material is weighed into a titration beaker. Thirty mL of acetonitrile is added to dissolve the sample. Prior to titration, 30 mL of chloroform is added. Titration is carried out and the HNP is determined. The electrolyte for the reference electrode is 2-(aminomethylpyridine. The electrode is allowed to stand in the solvent system for two hours after filling with the electrolyte to achieve equilibration. All samples are run in duplicate. The pKa values are seen in the table below.

[1] = extrapolated from HNP versus known aqueous pKa of reference materials
[2] = extrapolated from HNP versus known aqueous pKa of reference materials, read-out: Calculated pKa
[3] = pKa of the test hindered amine contained in the formulation, read-out: HALS pKa

## CC(C)(O)CON1C(C)(C)CC(OC(=O)CCCCCCCCC(=O)OC2CC(C)(C)N(OCC(C)(C)O)C(C)(C)C2)CC1(C)C [Example 2]
  HPN: 513 mv
[1]
  Calculated pKa: 3.8

## CCCCCCCCCCCCCCCCCC(=O)OC1CC(C)(C)N(OCC(C)(C)O)C(C)(C)C1 [Example 73, 1-(2-Hydroxy-2-methylpropoxy)-4-octadecanoyloxy-2,2,6,6-tetramethylpiperidine]
  HPN: 523 mv
[2]
  pKa: 3.9
[3]
  pKa: 4

## CCCCCCCCCCCCCCCCCC(=O)OC1CC(C)(C)N(OC2CCCCC2)C(C)(C)C1 [II, 1-cyclohexyloxy-4-ocatadecanoyloxy-2,2,6,6-tetramethylpiperidine]
  HPN: 436 mv
[1]
  Calculated pKa: 4.9

## CCCCCCCCON1C(C)(C)CC(OC(=O)CCCCCCCCC(=O)OC2CC(C)(C)N(OCCCCCCCC)C(C)(C)C2)CC1(C)C [TINUVIN® 123, bis(1-octyloxy-2,2,6,6-tetramethylpiperidin-4-yl) sebacate]
[2]
  pKa: 4.6
[3]
  pKa: 4.6

## CC1(C)CC(OC(=O)CCCCCCCCC(=O)OC2CC(C)(C)NC(C)(C)C2)CC(C)(C)N1 [TINUVIN® 770, bis(2,2,6,6-tetramethylpiperidin-4-yl) sebacate]
[3]
  pKa: 9.1
